Assays:
KATO III = test: 2D cell proliferation assay, KATO III; type: cell-based; conditions: Homo sapiens, 96 hours, CTG, read-out: Cell Line, IC50 KATO III
Experimental: (§1) Low IC50 values are indicative of the high potency of the FGFR inhibitor compounds in this assay selling. […] Cell proliferation assays are performed in two-dimensional (2D)) anchorage-dependent conditions in 96 well plates (Corning® Black/Clear flat Bottom, Cat #3603) with the following cell lines: • Ba/F3 FGFR2-BICC1 (human […]): Mouse Ba/F3 cell line stably expressed exogenous human FGFR2-BICC1 fusion gene bearing V546F mutation in FGFR2 Ba/F3; • FGFR2-BICC1 (human FGFR2/[…]): Mouse Ba/F3 cell line stably expressed exogenous human FGFR2-BICC1 fusion gene bearing N549K mutation in FGFR2; • Snu-16: human gastric cancer cell with FGFR2 amplification; • KATO III: human gastric cancer cell with FGFR2 amplification; • AN3CA: Human endometrial cancer with FGFR2 mutation (k310R, N549K); • MFM-223: Human breast cancer with FGFR1/2 amplification; • MFE-296: Human endometrial cancer with FGFR2 mutation (N549K); • MFE-280: Human endometrial cancer with FGFR2 mutation ([…]); • NCI-H1581: human non-small cell lung cancer with FGFR1 amplification; • KG-1a: Acute myelogenous leukemia with FGFR1OP2-FGFR1 translocation; • DMS114: human small cell carcinoma of the lung with FGFR1 amplification; • RT112: human bladder cancer with FGFR3 overexpression/FGFR3-TACC3 fusion; • SW780: human bladder cancer with FGFR3 overexpression/FGFR3-BALAP2L1 fusion; • Hep3B: Liver cancer with FGF19 amplification (FGFR4 ligand); • AGS: Human gastric adenocarcinoma with Kras G12D mutation and FGFR wild type; • PC-9: human non-small cell lung cancer (NSCLC) with wild-type FGFR and an EGFR del19 mutation; or • H1975: human non-small cell lung cancer (NSCLC) with wild-type FGFR and EGFR L858R/T790M mutation.
(§2) Cell lines are purchased from the American Type Culture Collection (ATCC) or Sigma. All cell lines are maintained in RPMI-1640 or DMEM supplemented with 10% heat-inactivated fetal bovine serum.
(§3) Cells growing in the log phase are detached with Gibco™ TrypLE™ Express Enzyme and plated in 96 well plate at 3000 to 5000 cells/well in 100 μl of media. After overnight incubation at 37° C., 5% CO2 incubator, cells are treated with compounds (50 uL/well) at the final concentrations spanning from 0.000038 uM to 10 μM (4-fold serial dilution for total of 10 points). Cells are incubated at 37° C., 5% CO2, and 95% humidity incubator for 96 hours. At the end of incubation 2D CTG reagent from Promega was added to each well according to vendors recommendation and mixed for 10 min in dark. The luminescence signals are determined with a Biotek™ plate reader. Data is fitted using a sigmoidal curve analysis program (GraphPad Prism®) with variable hill slope and IC50 is determined.

FGFR1 = biological target: T1, FGFR1 (Homo sapiens, UniProt P11362); test: pERK potency assay (In Cell ELISA), DMS114 cells; type: cell-based; conditions: DMS114 (FGFR1 amplification) cells, 3 hours
T1 construct: DMS114 (FGFR1 amplification); host or cells: DMS114
Procedure, shortened: (§4)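 IC50 values come from a 4-parameter sigmoidal fit of in-cell ELISA chemiluminescent pERK (Thr202/Tyr204) signal. Treatment lasted 3 h at 37 °C, final 0.000038 to 10 μM in 4-fold steps, using AN3CA (mutant FGFR2), DMS114 (amplified FGFR1) and RT112 (FGFR3 overexpression/fusion) cells.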

FGFR3 = biological target: T2, FGFR3 (Homo sapiens, UniProt P22607); test: pERK potency assay (In Cell ELISA), RT112 cells; type: cell-based; conditions: RT112 (FGFR3 overexpression/FGFR3-TACC3 fusion) cells, 3 hours
T2 construct: RT112 (FGFR3 overexpression/FGFR3-TACC3 fusion); host or cells: RT112; the other entry of the earlier key: TACC3 (Q9Y6A5, Transforming acidic coiled-coil-containing protein 3)
Procedure, shortened: as §4

AN3CA = test: 2D cell proliferation assay, AN3CA; type: cell-based; conditions: Homo sapiens, AN3-CA, 96 hours, CTG, read-out: Cell Line, IC50 AN3CA
Experimental: as §1, §2, §3

SNU-16 = test: 2D cell proliferation assay, SNU-16; type: cell-based; conditions: Homo sapiens, 96 hours, CTG, read-out: Cell Line, IC50 SNU-16
Experimental: as §1, §2, §3

FGFR2 = biological target: T3, FGFR2 (Homo sapiens, UniProt P21802, K310R/N549K); test: pERK potency assay (In Cell ELISA), AN3CA cells; type: cell-based; conditions: for IC50: pERK, AN3CA (FGFR2/k310R, N549K) cells, 3 hours; for FGFR1 IC50/FGFR2 IC50 / FGFR3 IC50/FGFR2 IC50: selectivity ratio, pERK potency; for FGFR1 IC50/FGFR2 IC50: FGFR2 relative to FGFR1; for FGFR3 IC50/FGFR2 IC50: FGFR2 relative to FGFR3
T3 construct: in FGFR aberrations of AN3CA (FGFR2/k310R, N549K); host or cells: AN3CA
Procedure, shortened: as §4

Ba/F3 FGFR2-N549K = biological target: T4, Ba/F3 FGFR2-N549K (Homo sapiens, UniProt P21802, N549K, cells depend on it); test: 2D cell proliferation assay, Ba/F3 FGFR2-N549K; type: cell-based, mouse; conditions: 96 hours, CTG, read-out: Cell Line, IC50 Ba/F3 FGFR2-N549K
T4 construct: fused on or other part: Q9H694 (Protein bicaudal C homolog 1)
Experimental: as §1, §2, §3

Ba/F3 FGFR2-V564F = biological target: T5, Ba/F3 FGFR2-V564F (Homo sapiens, UniProt P21802, V564F, cells depend on it); test: 2D cell proliferation assay, Ba/F3 FGFR2-V564F; type: cell-based, mouse; conditions: 96 hours, CTG, read-out: Cell Line, IC50 Ba/F3 FGFR2-V564F
T5 construct: fused on or other part: Q9H694 (Protein bicaudal C homolog 1)
Experimental: as §1, §2, §3

T3 sequence (P21802 22-821 K310R/N549K): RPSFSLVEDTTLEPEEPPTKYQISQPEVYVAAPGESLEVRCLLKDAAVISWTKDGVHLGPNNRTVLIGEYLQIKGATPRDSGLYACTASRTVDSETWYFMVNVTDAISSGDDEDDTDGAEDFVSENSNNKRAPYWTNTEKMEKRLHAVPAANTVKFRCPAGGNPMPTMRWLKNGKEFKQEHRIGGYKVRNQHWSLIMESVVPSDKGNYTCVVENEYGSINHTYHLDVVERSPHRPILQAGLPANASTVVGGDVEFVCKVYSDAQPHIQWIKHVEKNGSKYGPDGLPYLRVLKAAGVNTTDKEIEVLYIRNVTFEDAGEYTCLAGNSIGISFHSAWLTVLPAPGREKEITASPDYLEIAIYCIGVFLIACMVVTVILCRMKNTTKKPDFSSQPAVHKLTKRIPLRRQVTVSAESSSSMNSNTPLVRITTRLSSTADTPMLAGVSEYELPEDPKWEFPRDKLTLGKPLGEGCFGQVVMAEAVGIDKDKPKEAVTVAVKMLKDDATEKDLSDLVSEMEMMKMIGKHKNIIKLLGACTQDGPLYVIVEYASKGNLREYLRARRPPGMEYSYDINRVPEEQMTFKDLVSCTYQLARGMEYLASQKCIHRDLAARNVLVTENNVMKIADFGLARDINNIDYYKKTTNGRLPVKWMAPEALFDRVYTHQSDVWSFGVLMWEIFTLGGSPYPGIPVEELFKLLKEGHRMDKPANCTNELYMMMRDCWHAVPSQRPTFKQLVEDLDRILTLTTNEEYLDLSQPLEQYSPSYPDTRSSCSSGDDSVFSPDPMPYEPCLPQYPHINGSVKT
T1 sequence (P11362 22-822): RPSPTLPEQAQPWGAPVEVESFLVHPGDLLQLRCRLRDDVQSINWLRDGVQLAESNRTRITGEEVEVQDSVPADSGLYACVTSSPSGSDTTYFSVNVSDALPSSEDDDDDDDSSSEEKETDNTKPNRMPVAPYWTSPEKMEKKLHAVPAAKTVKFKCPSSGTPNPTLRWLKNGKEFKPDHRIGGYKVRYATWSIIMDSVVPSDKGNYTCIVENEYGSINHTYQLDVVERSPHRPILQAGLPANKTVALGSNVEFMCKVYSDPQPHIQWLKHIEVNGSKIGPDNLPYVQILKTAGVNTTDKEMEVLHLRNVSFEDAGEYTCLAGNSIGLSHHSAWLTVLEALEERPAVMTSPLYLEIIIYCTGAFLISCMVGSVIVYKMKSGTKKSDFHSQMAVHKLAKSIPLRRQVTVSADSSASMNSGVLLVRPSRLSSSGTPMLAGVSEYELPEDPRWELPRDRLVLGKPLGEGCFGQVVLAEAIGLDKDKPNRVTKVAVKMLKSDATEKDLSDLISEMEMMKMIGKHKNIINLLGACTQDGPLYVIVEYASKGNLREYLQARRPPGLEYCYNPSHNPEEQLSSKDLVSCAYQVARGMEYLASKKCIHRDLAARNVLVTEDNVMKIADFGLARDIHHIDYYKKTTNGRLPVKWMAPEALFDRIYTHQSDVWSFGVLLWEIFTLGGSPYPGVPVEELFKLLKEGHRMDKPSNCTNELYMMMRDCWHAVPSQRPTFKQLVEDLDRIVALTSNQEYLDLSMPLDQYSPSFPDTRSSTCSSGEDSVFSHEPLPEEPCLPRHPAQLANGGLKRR
T4 sequence (P21802 whole entry N549K, the tested form may be a part): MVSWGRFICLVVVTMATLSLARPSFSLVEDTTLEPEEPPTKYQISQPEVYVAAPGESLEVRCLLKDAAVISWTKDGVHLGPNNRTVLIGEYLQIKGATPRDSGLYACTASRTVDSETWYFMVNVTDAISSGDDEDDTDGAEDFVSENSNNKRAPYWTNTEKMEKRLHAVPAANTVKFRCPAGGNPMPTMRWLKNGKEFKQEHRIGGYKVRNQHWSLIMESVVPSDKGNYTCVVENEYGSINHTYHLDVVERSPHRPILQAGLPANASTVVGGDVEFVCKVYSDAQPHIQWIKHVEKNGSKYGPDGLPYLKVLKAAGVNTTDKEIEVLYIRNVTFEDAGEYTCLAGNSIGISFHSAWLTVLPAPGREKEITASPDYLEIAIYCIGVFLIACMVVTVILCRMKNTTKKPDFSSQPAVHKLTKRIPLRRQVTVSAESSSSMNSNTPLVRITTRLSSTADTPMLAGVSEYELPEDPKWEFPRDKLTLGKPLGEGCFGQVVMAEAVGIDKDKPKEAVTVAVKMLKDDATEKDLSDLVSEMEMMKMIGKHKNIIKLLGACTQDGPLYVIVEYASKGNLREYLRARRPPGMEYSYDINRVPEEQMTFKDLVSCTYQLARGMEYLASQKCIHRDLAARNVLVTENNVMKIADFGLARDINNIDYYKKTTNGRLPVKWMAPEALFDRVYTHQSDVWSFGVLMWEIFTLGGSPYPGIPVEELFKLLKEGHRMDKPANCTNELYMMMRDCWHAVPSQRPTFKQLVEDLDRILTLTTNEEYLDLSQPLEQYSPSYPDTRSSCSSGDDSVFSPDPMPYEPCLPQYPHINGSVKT
T5 sequence (P21802 whole entry V564F, the tested form may be a part): as the sequence (P21802 whole entry N549K, the tested form may be a part) above, with K549N, V564F counted along it

C=CC(=O)N1CCC2(CC=C(c3c(-c4ccc(Oc5ncccn5)cc4)c4c(N)ncnc4n3C)CC2)CC1 [Example 4, 1-(9-(4-amino-7-methyl-5-(4-(pyrimidin-2-yloxy)phenyl)-7H-pyrrolo[2,3-d]pyrimidin-6-yl)-3-azaspiro[5.5]undec-8-en-3-yl)prop-2-en-1-one]
IC50 (KATO III): 10 to 30 nM
IC50 (FGFR1): > 100 nM
IC50 (FGFR3): > 100 nM
IC50 (AN3CA): 30 to 100 nM
IC50 (SNU-16): 1 to 10 nM
IC50 (FGFR2): 1 to 10 nM
FGFR1 IC50/FGFR2 IC50 (FGFR2): F (a selectivity ratio greater than 50 but less than or equal to 150)
FGFR3 IC50/FGFR2 IC50 (FGFR2): G (a selectivity ratio greater than 150 but less than or equal to 500)

C=CC(=O)N1CCC2(CC=C(c3c(-c4ccc(OC)cc4)c4c(N)ncnc4n3C)CC2)CC1 [Example 8, 1-(9-(4-amino-5-(4-methoxyphenyl)-7-methyl-7H-pyrrolo[2,3-d]pyrimidin-6-yl)-3-azaspiro[5.5]undec-8-en-3-yl)prop-2-en-1-one]
IC50 (KATO III): 1 to 10 nM
IC50 (FGFR1): 30 to 100 nM
IC50 (FGFR3): > 100 nM
IC50 (AN3CA): 1 to 10 nM
IC50 (SNU-16): 1 to 10 nM
IC50 (FGFR2): ≤ 1 nM
FGFR1 IC50/FGFR2 IC50 (FGFR2): G (a selectivity ratio greater than 150 but less than or equal to 500)
FGFR3 IC50/FGFR2 IC50 (FGFR2): H (a selectivity ratio greater than 500 but less than or equal to 1000)

C=CC(=O)N1CCC2(CC=C(c3c(-c4cccc(F)c4)c4c(N)ncnc4n3C)CC2)CC1 [Example 10, 1-(9-(4-amino-5-(3-fluorophenyl)-7-methyl-7H-pyrrolo[2,3-d]pyrimidin-6-yl)-3-azaspiro[5.5]undec-8-en-3-yl)prop-2-en-1-one]
IC50 (KATO III): 10 to 30 nM
IC50 (FGFR1): > 100 nM
IC50 (FGFR3): > 100 nM
IC50 (AN3CA): 30 to 100 nM
IC50 (SNU-16): 10 to 30 nM
IC50 (FGFR2): 1 to 10 nM
FGFR1 IC50/FGFR2 IC50 (FGFR2): G (a selectivity ratio greater than 150 but less than or equal to 500)
FGFR3 IC50/FGFR2 IC50 (FGFR2): G (a selectivity ratio greater than 150 but less than or equal to 500)

C=CC(=O)N1CCC2(CC=C(c3c(-c4ccc(F)cc4)c4c(N)ncnc4n3C)CC2)CC1 [Example 11, 1-(9-(4-amino-5-(4-fluorophenyl)-7-methyl-7H-pyrrolo[2,3-d]pyrimidin-6-yl)-3-azaspiro[5.5]undec-8-en-3-yl)prop-2-en-1-one]
IC50 (KATO III): 30 to 100 nM
IC50 (FGFR1): > 100 nM
IC50 (FGFR3): > 100 nM
IC50 (AN3CA): 30 to 100 nM
IC50 (SNU-16): 10 to 30 nM
GI50 (Ba/F3 FGFR2-N549K): 1 to 10 nM
GI50 (Ba/F3 FGFR2-V564F): 30 to 100 nM
IC50 (FGFR2): 1 to 10 nM
FGFR1 IC50/FGFR2 IC50 (FGFR2): I (a selectivity ratio greater than 1000 but less than or equal to 2000)
FGFR3 IC50/FGFR2 IC50 (FGFR2): J (a selectivity ratio greater than 2000)

C=CC(=O)N1CCC2(CC=C(c3c(-c4cccc(OC)c4)c4c(N)ncnc4n3C)CC2)CC1 [Example 16, 1-(9-(4-amino-5-(3-methoxyphenyl)-7-methyl-7H-pyrrolo[2,3-d]pyrimidin-6-yl)-3-azaspiro[5.5]undec-8-en-3-yl)prop-2-en-1-one]
IC50 (KATO III): 10 to 30 nM
IC50 (FGFR1): > 100 nM
IC50 (FGFR3): > 100 nM
IC50 (AN3CA): 30 to 100 nM
IC50 (SNU-16): 10 to 30 nM
IC50 (FGFR2): 1 to 10 nM
FGFR1 IC50/FGFR2 IC50 (FGFR2): F (a selectivity ratio greater than 50 but less than or equal to 150)
FGFR3 IC50/FGFR2 IC50 (FGFR2): G (a selectivity ratio greater than 150 but less than or equal to 500)

C=CC(=O)N1CCC2(CC=C(c3c(-c4ccc(OC(F)F)cc4)c4c(N)ncnc4n3C)CC2)CC1 [Example 17, 1-(9-(4-amino-5-(4-(difluoromethoxy)phenyl)-7-methyl-7H-pyrrolo[2,3-d]pyrimidin-6-yl)-3-azaspiro[5.5]undec-8-en-3-yl)prop-2-en-1-one]
IC50 (KATO III): 1 to 10 nM
IC50 (FGFR1): 30 to 100 nM
IC50 (FGFR3): > 100 nM
IC50 (AN3CA): 10 to 30 nM
IC50 (SNU-16): 1 to 10 nM
IC50 (FGFR2): ≤ 1 nM
FGFR1 IC50/FGFR2 IC50 (FGFR2): G (a selectivity ratio greater than 150 but less than or equal to 500)
FGFR3 IC50/FGFR2 IC50 (FGFR2): G (a selectivity ratio greater than 150 but less than or equal to 500)

C=CC(=O)N1CCC2(CC=C(c3c(-c4ccc(OC5CC5)cc4)c4c(N)ncnc4n3C)CC2)CC1 [Example 18, 1-(9-(4-amino-5-(4-cyclopropoxyphenyl)-7-methyl-7H-pyrrolo[2,3-d]pyrimidin-6-yl)-3-azaspiro[5.5]undec-8-en-3-yl)prop-2-en-1-one]
IC50 (KATO III): 1 to 10 nM
IC50 (FGFR1): > 100 nM
IC50 (FGFR3): > 100 nM
IC50 (AN3CA): 10 to 30 nM
IC50 (SNU-16): 1 to 10 nM
GI50 (Ba/F3 FGFR2-N549K): 1 to 10 nM
GI50 (Ba/F3 FGFR2-V564F): 1 to 10 nM
IC50 (FGFR2): ≤ 1 nM
FGFR1 IC50/FGFR2 IC50 (FGFR2): G (a selectivity ratio greater than 150 but less than or equal to 500)
FGFR3 IC50/FGFR2 IC50 (FGFR2): G (a selectivity ratio greater than 150 but less than or equal to 500)

C=CC(=O)N1CCC2(CC=C(c3c(-c4ccc(OC5CC5)nc4)c4c(N)ncnc4n3C)CC2)CC1 [Example 22, 1-(9-(4-amino-5-(6-cyclopropoxypyridin-3-yl)-7-methyl-7H-pyrrolo[2,3-d]pyrimidin-6-yl)-3-azaspiro[5.5]undec-8-en-3-yl)prop-2-en-1-one]
IC50 (KATO III): 1 to 10 nM
IC50 (FGFR1): > 100 nM
IC50 (FGFR3): > 100 nM
IC50 (AN3CA): 10 to 30 nM
IC50 (SNU-16): 1 to 10 nM
GI50 (Ba/F3 FGFR2-N549K): 1 to 10 nM
GI50 (Ba/F3 FGFR2-V564F): 1 to 10 nM
IC50 (FGFR2): 1 to 10 nM
FGFR1 IC50/FGFR2 IC50 (FGFR2): G (a selectivity ratio greater than 150 but less than or equal to 500)
FGFR3 IC50/FGFR2 IC50 (FGFR2): G (a selectivity ratio greater than 150 but less than or equal to 500)

C=CC(=O)N1CCC2(CC=C(c3c(-c4ccc(OC(F)F)nc4)c4c(N)ncnc4n3C)CC2)CC1 [Example 29, 1-(9-(4-amino-5-(6-(difluoromethoxy)pyridin-3-yl)-7-methyl-7H-pyrrolo[2,3-d]pyrimidin-6-yl)-3-azaspiro[5.5]undec-8-en-3-yl)prop-2-en-1-one]
IC50 (KATO III): 1 to 10 nM
IC50 (FGFR1): > 100 nM
IC50 (FGFR3): > 100 nM
IC50 (SNU-16): 1 to 10 nM
GI50 (Ba/F3 FGFR2-N549K): 1 to 10 nM
GI50 (Ba/F3 FGFR2-V564F): 30 to 100 nM
IC50 (FGFR2): ≤ 1 nM
FGFR1 IC50/FGFR2 IC50 (FGFR2): H (a selectivity ratio greater than 500 but less than or equal to 1000)
FGFR3 IC50/FGFR2 IC50 (FGFR2): J (a selectivity ratio greater than 2000)

Reference: patent publication US20260152503A1, “SPIROBICYCLIC COMPOUNDS” (ACERAND THERAPEUTICS (HONG KONG) LIMITED, priority 2022, published 2026)
